ChEMBL document CHEMBL3044864, “Synthesis and in vitro anticancer activities of novel aryl-naphthalene lignans” (Med Chem Res, 2012)
Active and inactive are the calls of the source. The calls are words filed in the database; no cut-off is given here.

Key:
[1] = test system: Leishmania; assay: Antileishmanial activity against Leishmania promastigotes; type: functional, organism-based
[2] = Antiproliferative activity against Homo sapiens (human) monocytes; type: cell-based; conditions: Monocyte
[3] = test system: KB; assay: Cytotoxicity against Homo sapiens (human) KB cells after 72 hr by MTT assay; type: functional, cell-based
[4] = test system: SW480; assay: Cytotoxicity against Homo sapiens (human) SW480 cells after 72 hr by MTT assay; type: functional, cell-based; conditions: SW480, 72 h
[5] = test system: A549; assay: Cytotoxicity against Homo sapiens (human) A549 cells after 72 hr by MTT assay; type: functional, cell-based; conditions: A549, 72 h
[6] = test system: KB; assay: Induction of apoptosis in Homo sapiens (human) KB cells assessed as downregulation of bcl2 expression at 5 to 15 uM after 72 hr by Western blot analysis; type: functional, cell-based
[7] = test system: KB; assay: Induction of apoptosis in Homo sapiens (human) KB cells assessed as upregulation of bax expression at 5 to 15 uM after 72 hr by Western blot analysis; type: functional, cell-based
[8] = test system: KB; assay: Induction of apoptosis in Homo sapiens (human) KB cells assessed as nuclear condensation at 5 to 10 uM after 72 hr using Hoechst/PI staining by fluorescence microscopy; type: functional, cell-based
[9] = test system: KB; assay: Induction of apoptosis in Homo sapiens (human) KB cells assessed as increase in cleaved caspase 3 level after 72 hr by Western blot analysis; type: functional, cell-based
[10] = test system: KB; assay: Induction of apoptosis in Homo sapiens (human) KB cells assessed as appearance of apoptotic bodies n at 5 to 10 uM after 72 hr using AO/EB staining by fluorescence microscopy; type: functional, cell-based
[11] = test system: KB; assay: Induction of apoptosis in Homo sapiens (human) KB cells assessed as nuclear fragmentation at 5 to 10 uM after 72 hr using AO/EB staining by fluorescence microscopy; type: functional, cell-based
[12] = test system: KB; assay: Induction of apoptosis in Homo sapiens (human) KB cells assessed as early apoptic cells with nuclear condensation at 5 to 10 uM after 72 hr using AO/EB staining by fluorescence microscopy; type: functional, cell-based

| Structure (SMILES) | IC50 [3] [µM] | IC50 [4] [µM] | IC50 [5] [µM] | also measured |
| --- | --- | --- | --- | --- |
| COc1cc2c(O)c3c(c(-c4ccc5c(c4)OCO5)c2cc1OC)C(=O)OC3 [DIPHYLLIN] | 5.3 | 3.4 | 8 | IC50 [1]: 14.4 µM; IC50 [2]: 35.2 µM |
| COc1cccc(-c2c3c(c(O)c4cc5c(cc24)OCO5)COC3=O)c1 | > 100 | > 100 | 68.6 | – |
| COc1ccc(-c2c3c(c(O)c4cc5c(cc24)OCO5)COC3=O)cc1 | > 100 | > 100 | 35.6 | – |
| O=C1OCc2c1c(-c1ccc3c(c1)OCO3)c1cc3c(cc1c2O)OCO3 [TAIWANIN E] | 19.7 | > 100 | 53.3 | – |
| COc1ccc(OC)c(-c2c3c(c(O)c4cc5c(cc24)OCO5)COC3=O)c1 | > 100 | > 100 | > 100 | – |
| COc1cc([C@@H]2c3cc4c(cc3[C@@H](O[C@@H]3O[C@@H]5CO[C@@H](C)O[C@H]5[C@H](O)[C@H]3O)[C@H]3COC(=O)[C@H]23)OCO4)cc(OC)c1O [ETOPOSIDE] | 8.3 | 6.4 | 3.9 | – |
| COc1cc(OC)cc(-c2c3c(c(O)c4cc5c(cc24)OCO5)COC3=O)c1 | 33.3 | > 100 | > 100 | – |
| COc1ccccc1-c1c2c(c(O)c3cc4c(cc13)OCO4)COC2=O | > 100 | 21.1 | > 100 | – |
| Cc1ccc(-c2c3c(c(O)c4cc5c(cc24)OCO5)COC3=O)cc1 | 18.9 | 4 | 30 | Activity [6]: Active; Activity [7]: Active; Activity [8]: Active; Activity [9]: Dose-dependent effect; Activity [10]: Active; Activity [11]: Active; Activity [12]: Active |
| COc1ccc(-c2c3c(c(O)c4cc5c(cc24)OCO5)COC3=O)cc1OC | 45.2 | > 100 | 39.5 | – |
| COc1cc(-c2c3c(c(O)c4cc5c(cc24)OCO5)COC3=O)cc(OC)c1OC [DEHYDROPODOPHYLLOTOXIN] | 29.1 | > 100 | 107 | – |
| O=C1OCc2c1c(-c1ccccc1)c1cc3c(cc1c2O)OCO3 | > 100 | > 100 | > 100 | – |
